Measurements reported in ChEMBL document CHEMBL3098003, “Structure-based design of 2-aminopyridine oxazolidinones as potent and selective tankyrase inhibitors” (ACS Med Chem Lett, 2013).
Calls of active or inactive are those of the source. The calls are words filed in the database; no cut-off is given here.

Experiments:
[1] = target: Ribosomal protein S6 kinase alpha-1 (Homo sapiens) (UniProt Q15418); assay: Inhibition of RPS6KA1 (unknown origin) at 1 uM after 1 hr
[2] = target: Wee1-like protein kinase (Homo sapiens) (UniProt P30291); assay: Inhibition of WEE1 (unknown origin) at 1 uM after 1 hr
[3] = target: Poly [ADP-ribose] polymerase 1 (Homo sapiens, UniProt P09874); assay: Inhibition of PARP1 (unknown origin)
[4] = target: cAMP-dependent protein kinase catalytic subunit alpha (Homo sapiens) (UniProt P17612); assay: Inhibition of PRKACA (unknown origin) at 1 uM after 1 hr
[5] = target: Phosphatidylinositol 4,5-bisphosphate 3-kinase catalytic subunit delta isoform (Homo sapiens) (UniProt O00329); assay: Inhibition of PIK3CD (unknown origin) at 1 uM after 1 hr
[6] = target: Mitogen-activated protein kinase kinase kinase 1 (Homo sapiens) (UniProt Q13233); assay: Inhibition of MAP3K1 (unknown origin) at 1 uM after 1 hr
[7] = target: Tyrosine-protein kinase Lck (Homo sapiens) (UniProt P06239); assay: Inhibition of LCK (unknown origin) at 1 uM after 1 hr
[8] = target: Serine/threonine-protein kinase PLK4 (Homo sapiens) (UniProt O00444); assay: Inhibition of PLK4 (unknown origin) at 1 uM after 1 hr
[9] = AUC in CD1 mouse at 30 mg/kg, po; type: ADME, organism-based; set-up: dose 30 mg/kg, route oral; details: plasma
[10] = target: Homeodomain-interacting protein kinase 1 (Homo sapiens) (UniProt Q86Z02); assay: Inhibition of HIPK1 (unknown origin) at 1 uM after 1 hr
[11] = target: Mitogen-activated protein kinase kinase kinase 9 (Homo sapiens) (UniProt P80192); assay: Inhibition of MAP3K9 (unknown origin) at 1 uM after 1 hr
[12] = target: Mitogen-activated protein kinase kinase kinase kinase 4 (Homo sapiens) (UniProt O95819); assay: Inhibition of MAP4K4 (unknown origin) at 1 uM after 1 hr
[13] = target: Interferon-induced, double-stranded RNA-activated protein kinase (Homo sapiens) (UniProt P19525); assay: Inhibition of EIF2AK2 (unknown origin) at 1 uM after 1 hr
[14] = Half life in Sprague-Dawley rat at 2 mg/kg, po; type: ADME, organism-based; set-up: dose 2 mg/kg, route oral; details: in vivo
[15] = Elimination half life in Sprague-Dawley rat at 0.5 mg/kg, iv; type: ADME, organism-based; set-up: dose 0.5 mg/kg, route intravenous; details: in vivo, read-out: beta t1/2 (converted)
[16] = Volume of distribution at steady state in Sprague-Dawley rat at 0.5 mg/kg, iv; type: ADME, organism-based; set-up: dose 0.5 mg/kg, route intravenous; details: in vivo, read-out: Vdss
[17] = Half life in CD1 mouse at 30 mg/kg, po; type: ADME, organism-based; set-up: dose 30 mg/kg, route oral; details: in vivo
Salmonella typhimurium [18] = assay: Genotoxicity in Salmonella typhimurium by microAmes assay; type: toxicity, organism-based; details: salmonella enterica subsp. enterica serovar typhimurium
[19] = target: Poly [ADP-ribose] polymerase 2 (Homo sapiens, UniProt Q9UGN5); assay: Inhibition of PARP2 (unknown origin)
[20] = target: Serine/threonine-protein kinase 3 (Homo sapiens) (UniProt Q13188); assay: Inhibition of STK3 (unknown origin) at 1 uM after 1 hr
[21] = target: TGF-beta receptor type-2 (Homo sapiens) (UniProt P37173); assay: Inhibition of TGFBR2 (unknown origin) at 1 uM after 1 hr
[22] = target: Ephrin type-B receptor 3 (Homo sapiens) (UniProt P54753); assay: Inhibition of EPHB3 (unknown origin) at 1 uM after 1 hr
[23] = target: Casein kinase I isoform delta (Homo sapiens) (UniProt P48730); assay: Inhibition of CSNK1D (unknown origin) at 1 uM after 1 hr
[24] = target: Proto-oncogene tyrosine-protein kinase Src (Homo sapiens) (UniProt P12931); assay: Inhibition of SRC (unknown origin) at 1 uM after 1 hr
[25] = target: Epithelial discoidin domain-containing receptor 1 (Homo sapiens) (UniProt Q08345); assay: Inhibition of DDR1 (unknown origin) at 1 uM after 1 hr relative to control
[26] = target: Interleukin-1 receptor-associated kinase 4 (Homo sapiens) (UniProt Q9NWZ3); assay: Inhibition of IRAK4 (unknown origin) at 1 uM after 1 hr
[27] = target: Rho-associated protein kinase 2 (Homo sapiens) (UniProt O75116); assay: Inhibition of ROCK2 (unknown origin) at 1 uM after 1 hr
[28] = target: Tyrosine-protein kinase ABL1 (Homo sapiens) (UniProt P00519); assay: Inhibition of ABL1 (unknown origin) at 1 uM after 1 hr
[29] = target: Death-associated protein kinase 1 (Homo sapiens) (UniProt P53355); assay: Inhibition of DAPK1 (unknown origin) at 1 uM after 1 hr
Salmonella typhimurium [30] = assay: Genotoxicity in Salmonella typhimurium by microAmes assay in presence of S9 fraction; type: toxicity, organism-based; details: salmonella enterica subsp. enterica serovar typhimurium
[31] = target: Tyrosine-protein kinase Fyn (Homo sapiens) (UniProt P06241); assay: Inhibition of FYN (unknown origin) at 1 uM after 1 hr
[32] = target: Non-receptor tyrosine-protein kinase TYK2 (Homo sapiens) (UniProt P29597); assay: Inhibition of TYK2 (unknown origin) at 1 uM after 1 hr
[33] = Cmax in Sprague-Dawley rat at 2 mg/kg, po; type: ADME, organism-based; set-up: dose 2 mg/kg, route oral; details: in vivo
[34] = target: Mitogen-activated protein kinase 14 (Homo sapiens) (UniProt Q16539); assay: Inhibition of MAPK14 (unknown origin) at 1 uM after 1 hr
[35] = target: MAP kinase-interacting serine/threonine-protein kinase 1 (Homo sapiens) (UniProt Q9BUB5); assay: Inhibition of MKNK1 (unknown origin) at 1 uM after 1 hr
[36] = Cmax in CD1 mouse at 30 mg/kg, po; type: ADME, organism-based; set-up: dose 30 mg/kg, route oral; details: in vivo
[37] = target: Serine/threonine-protein kinase Nek4 (Homo sapiens) (UniProt P51957); assay: Inhibition of NEK4 (unknown origin) at 1 uM after 1 hr
[38] = target: Serine/threonine-protein kinase D2 (Homo sapiens) (UniProt Q9BZL6); assay: Inhibition of PRKD2 (unknown origin) at 1 uM after 1 hr
[39] = target: Calcium/calmodulin-dependent protein kinase type II subunit delta (Homo sapiens) (UniProt Q13557); assay: Inhibition of CAMK2D (unknown origin) at 1 uM after 1 hr
[40] = target: Tyrosine-protein kinase JAK2 (Homo sapiens) (UniProt O60674); assay: Inhibition of JAK2 (unknown origin) at 1 uM after 1 hr
[41] = target: High affinity nerve growth factor receptor (Homo sapiens) (UniProt P04629); assay: Inhibition of NTRK1 (unknown origin) at 1 uM after 1 hr
[42] = AUC in Sprague-Dawley rat at 2 mg/kg, po; type: ADME, organism-based; set-up: dose 2 mg/kg, route oral; details: plasma
[43] = Clearance in Sprague-Dawley rat at 0.5 mg/kg, iv; type: ADME, organism-based; set-up: dose 0.5 mg/kg, route intravenous; details: in vivo
[44] = target: Cyclin-dependent kinase 2 (Homo sapiens) (UniProt P24941); assay: Inhibition of CDK2 (unknown origin) at 1 uM after 1 hr
[45] = Oral bioavailability in Sprague-Dawley rat at 2 mg/kg; type: ADME, organism-based; details: in vivo

Proto-oncogene tyrosine-protein kinase Src (Homo sapiens), sequence (P12931 2-536 limits assumed): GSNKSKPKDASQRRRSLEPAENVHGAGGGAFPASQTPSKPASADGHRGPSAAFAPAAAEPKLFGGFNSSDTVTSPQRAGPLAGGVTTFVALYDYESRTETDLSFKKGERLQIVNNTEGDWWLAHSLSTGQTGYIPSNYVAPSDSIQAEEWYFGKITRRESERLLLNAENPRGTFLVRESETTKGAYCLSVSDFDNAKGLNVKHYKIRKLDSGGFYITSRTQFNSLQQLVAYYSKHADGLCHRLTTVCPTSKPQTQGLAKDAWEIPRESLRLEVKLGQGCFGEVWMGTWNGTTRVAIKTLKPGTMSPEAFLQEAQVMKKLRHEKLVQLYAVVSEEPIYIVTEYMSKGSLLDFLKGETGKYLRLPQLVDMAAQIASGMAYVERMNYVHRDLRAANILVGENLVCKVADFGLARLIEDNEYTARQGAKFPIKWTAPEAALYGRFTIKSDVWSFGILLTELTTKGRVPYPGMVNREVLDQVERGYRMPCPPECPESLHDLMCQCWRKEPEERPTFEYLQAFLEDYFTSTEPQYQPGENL
Casein kinase I isoform delta (Homo sapiens), sequence (P48730 whole entry, looked up, canonical isoform): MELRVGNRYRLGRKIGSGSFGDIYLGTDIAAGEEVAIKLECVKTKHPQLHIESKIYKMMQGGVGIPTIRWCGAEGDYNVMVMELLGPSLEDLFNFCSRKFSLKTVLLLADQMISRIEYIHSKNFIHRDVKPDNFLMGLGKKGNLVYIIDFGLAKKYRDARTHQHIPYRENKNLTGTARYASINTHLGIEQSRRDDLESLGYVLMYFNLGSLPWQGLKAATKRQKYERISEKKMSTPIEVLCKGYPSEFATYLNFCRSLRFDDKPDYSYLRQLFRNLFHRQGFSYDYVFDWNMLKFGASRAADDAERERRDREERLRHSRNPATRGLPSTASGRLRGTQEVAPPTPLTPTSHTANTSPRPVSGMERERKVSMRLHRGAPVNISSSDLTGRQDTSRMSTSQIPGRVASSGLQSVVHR
Poly [ADP-ribose] polymerase 1, sequence (P09874 whole entry): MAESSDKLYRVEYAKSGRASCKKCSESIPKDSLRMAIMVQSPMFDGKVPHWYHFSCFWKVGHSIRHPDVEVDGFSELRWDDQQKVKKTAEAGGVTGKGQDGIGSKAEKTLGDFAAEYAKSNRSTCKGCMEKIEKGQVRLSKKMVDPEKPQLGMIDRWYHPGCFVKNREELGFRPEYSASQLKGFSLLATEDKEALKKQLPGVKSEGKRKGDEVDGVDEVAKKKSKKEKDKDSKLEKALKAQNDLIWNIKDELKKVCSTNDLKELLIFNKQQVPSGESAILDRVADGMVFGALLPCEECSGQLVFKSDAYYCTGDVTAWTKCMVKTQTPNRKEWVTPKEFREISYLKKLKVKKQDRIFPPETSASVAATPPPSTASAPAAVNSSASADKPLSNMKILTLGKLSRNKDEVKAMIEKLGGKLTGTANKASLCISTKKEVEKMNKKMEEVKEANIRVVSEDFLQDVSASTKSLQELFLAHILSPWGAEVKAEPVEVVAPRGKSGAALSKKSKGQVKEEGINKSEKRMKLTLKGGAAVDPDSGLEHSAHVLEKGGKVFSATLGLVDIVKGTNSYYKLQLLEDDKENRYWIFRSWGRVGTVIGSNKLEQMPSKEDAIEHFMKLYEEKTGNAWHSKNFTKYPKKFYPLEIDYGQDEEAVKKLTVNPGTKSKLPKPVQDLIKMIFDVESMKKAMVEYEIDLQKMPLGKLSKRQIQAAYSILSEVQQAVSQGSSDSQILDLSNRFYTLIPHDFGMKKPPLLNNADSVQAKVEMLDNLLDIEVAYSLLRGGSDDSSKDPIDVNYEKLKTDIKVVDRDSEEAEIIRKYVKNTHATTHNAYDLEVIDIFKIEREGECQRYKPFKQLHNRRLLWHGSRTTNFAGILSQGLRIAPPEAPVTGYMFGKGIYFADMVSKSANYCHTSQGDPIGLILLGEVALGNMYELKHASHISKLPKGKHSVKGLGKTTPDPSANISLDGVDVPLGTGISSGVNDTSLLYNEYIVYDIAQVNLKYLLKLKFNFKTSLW
MAP kinase-interacting serine/threonine-protein kinase 1 (Homo sapiens), sequence (Q9BUB5 whole entry, looked up): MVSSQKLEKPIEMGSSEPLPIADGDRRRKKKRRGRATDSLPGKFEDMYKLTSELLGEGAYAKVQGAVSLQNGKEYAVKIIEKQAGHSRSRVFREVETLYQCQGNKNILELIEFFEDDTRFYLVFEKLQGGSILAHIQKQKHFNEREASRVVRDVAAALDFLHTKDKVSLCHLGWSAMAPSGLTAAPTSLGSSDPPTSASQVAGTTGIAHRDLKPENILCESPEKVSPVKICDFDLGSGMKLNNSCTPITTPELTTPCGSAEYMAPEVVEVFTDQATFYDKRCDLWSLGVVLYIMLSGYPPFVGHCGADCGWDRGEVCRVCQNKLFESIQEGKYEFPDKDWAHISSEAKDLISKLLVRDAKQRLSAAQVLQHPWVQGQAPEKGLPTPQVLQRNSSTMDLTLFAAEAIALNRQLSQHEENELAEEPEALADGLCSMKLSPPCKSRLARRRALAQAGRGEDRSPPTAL
Tyrosine-protein kinase ABL1 (Homo sapiens), sequence (P00519 whole entry): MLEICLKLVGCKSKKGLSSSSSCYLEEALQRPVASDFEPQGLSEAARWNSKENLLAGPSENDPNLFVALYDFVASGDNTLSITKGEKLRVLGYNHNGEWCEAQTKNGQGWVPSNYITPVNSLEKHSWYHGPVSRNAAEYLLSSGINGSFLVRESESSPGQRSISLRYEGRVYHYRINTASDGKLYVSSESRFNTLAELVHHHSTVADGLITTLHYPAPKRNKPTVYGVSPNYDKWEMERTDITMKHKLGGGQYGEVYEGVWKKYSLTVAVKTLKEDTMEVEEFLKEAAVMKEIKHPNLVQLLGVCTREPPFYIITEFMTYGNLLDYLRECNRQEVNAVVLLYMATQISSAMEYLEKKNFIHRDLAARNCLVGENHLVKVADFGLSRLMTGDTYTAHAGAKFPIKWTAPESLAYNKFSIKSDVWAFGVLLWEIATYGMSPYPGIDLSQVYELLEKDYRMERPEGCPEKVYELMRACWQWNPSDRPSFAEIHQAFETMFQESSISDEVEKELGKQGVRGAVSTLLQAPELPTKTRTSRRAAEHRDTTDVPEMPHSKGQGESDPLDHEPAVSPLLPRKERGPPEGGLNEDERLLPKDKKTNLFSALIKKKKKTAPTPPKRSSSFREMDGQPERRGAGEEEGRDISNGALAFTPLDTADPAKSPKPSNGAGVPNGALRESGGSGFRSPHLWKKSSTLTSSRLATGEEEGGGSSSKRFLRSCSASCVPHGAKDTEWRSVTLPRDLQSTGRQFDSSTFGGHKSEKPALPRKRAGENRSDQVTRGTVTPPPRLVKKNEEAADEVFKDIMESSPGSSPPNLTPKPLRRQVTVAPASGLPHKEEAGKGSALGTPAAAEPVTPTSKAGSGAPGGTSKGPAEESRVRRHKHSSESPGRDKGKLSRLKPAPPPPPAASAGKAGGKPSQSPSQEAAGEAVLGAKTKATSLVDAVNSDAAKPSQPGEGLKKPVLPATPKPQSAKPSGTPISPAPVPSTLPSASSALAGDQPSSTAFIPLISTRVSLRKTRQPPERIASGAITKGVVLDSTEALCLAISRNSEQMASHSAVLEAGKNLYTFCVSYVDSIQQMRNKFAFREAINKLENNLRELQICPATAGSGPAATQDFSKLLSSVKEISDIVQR
TGF-beta receptor type-2 (Homo sapiens), sequence (P37173 whole entry): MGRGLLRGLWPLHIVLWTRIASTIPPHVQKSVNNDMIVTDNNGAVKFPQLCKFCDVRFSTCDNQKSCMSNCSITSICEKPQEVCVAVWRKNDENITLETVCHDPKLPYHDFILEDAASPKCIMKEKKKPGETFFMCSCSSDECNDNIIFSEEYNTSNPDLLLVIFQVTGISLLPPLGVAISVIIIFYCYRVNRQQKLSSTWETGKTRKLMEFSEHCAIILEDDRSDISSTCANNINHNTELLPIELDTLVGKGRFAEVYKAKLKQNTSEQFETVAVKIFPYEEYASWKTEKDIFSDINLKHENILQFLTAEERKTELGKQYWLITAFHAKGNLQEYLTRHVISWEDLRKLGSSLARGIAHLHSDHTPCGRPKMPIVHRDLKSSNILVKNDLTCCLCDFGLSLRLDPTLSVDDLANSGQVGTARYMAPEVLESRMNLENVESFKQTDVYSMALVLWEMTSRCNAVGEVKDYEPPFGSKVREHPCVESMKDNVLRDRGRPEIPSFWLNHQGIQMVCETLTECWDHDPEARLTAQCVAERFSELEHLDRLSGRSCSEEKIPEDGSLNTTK
Wee1-like protein kinase (Homo sapiens), sequence (P30291 whole entry, looked up): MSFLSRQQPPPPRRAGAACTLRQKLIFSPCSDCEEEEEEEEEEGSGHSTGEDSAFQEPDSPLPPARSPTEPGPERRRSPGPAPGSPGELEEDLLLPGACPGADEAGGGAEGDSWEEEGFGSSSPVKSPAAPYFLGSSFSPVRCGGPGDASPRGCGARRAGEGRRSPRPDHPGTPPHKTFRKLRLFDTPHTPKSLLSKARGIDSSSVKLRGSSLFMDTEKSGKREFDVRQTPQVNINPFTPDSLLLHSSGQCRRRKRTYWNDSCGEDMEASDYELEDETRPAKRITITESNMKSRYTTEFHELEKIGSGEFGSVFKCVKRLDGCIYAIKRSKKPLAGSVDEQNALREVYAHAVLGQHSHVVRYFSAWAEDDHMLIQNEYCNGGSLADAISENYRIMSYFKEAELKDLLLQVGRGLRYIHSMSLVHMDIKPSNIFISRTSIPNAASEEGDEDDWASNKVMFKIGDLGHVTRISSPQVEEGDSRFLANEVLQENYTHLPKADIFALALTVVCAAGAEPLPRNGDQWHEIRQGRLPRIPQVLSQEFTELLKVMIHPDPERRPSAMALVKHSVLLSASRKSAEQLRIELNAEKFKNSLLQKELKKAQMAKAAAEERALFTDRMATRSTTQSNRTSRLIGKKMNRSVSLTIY

For `CC1(C)OC(=O)N([C@H]2CC[C@H](c3cnc(N)c(-c4ncccn4)c3)CC2)[C@H]1c1ccccc1`, the inhibition [1] was “inactive”, the inhibition [2] was “inactive” and the IC50 [3] was over 85 µM. For the same molecule, the inhibition [4] was “inactive”, the inhibition [5] was “inactive” and the inhibition [6] was “inactive”. For the same molecule, the inhibition [7] was “inactive”, the inhibition [8] was “inactive” and the AUC [9] was 36.3 µM·h. The inhibition [10] was “inactive”, the inhibition [11] was “inactive” and the inhibition [12] was “inactive”. For the same molecule, the inhibition [13] was “inactive”, the half-life [14] was 2.9 h and the half-life [15] was 3.6 h. For the same molecule, the Vd [16] was 2.85 L/kg, the half-life [17] was 3.5 h and the Activity (Salmonella typhimurium [18]) was “Non-toxic”. The IC50 [19] was over 170 µM, the inhibition [20] was “inactive” and the inhibition [21] was “inactive”. The inhibition [22] was “inactive”, the inhibition [23] was “inactive” and the inhibition [24] was “inactive”. For the same molecule, the inhibition [25] was 18%, the inhibition [26] was “inactive” and the inhibition [27] was “inactive”. For the same molecule, the inhibition [28] was “inactive”, the inhibition [29] was “inactive” and the Activity (Salmonella typhimurium [30]) was “Non-toxic”. The inhibition [31] was “inactive”, the inhibition [32] was “inactive” and the Cmax [33] was 0.45 µM. The inhibition [34] was “inactive”, the inhibition [35] was “inactive” and the Cmax [36] was 6.09 µM. The inhibition [37] was “inactive”, the inhibition [38] was “inactive” and the inhibition [39] was “inactive”. For the same molecule, the inhibition [40] was “inactive”, the inhibition [41] was “inactive” and the AUC [42] was 1.98 µM·h. The clearance [43] was 12.5 mL/min/kg, the inhibition [44] was “inactive” and the bioavailability [45] was 33%.

For `CC1(C)OC(=O)N(c2ccc(-c3cnc(N)c(-c4ncccn4)c3)cc2)[C@H]1c1ccccc1`, the inhibition [1] was “inactive”, the inhibition [2] was “inactive” and the IC50 [3] was over 85 µM. For the same molecule, the inhibition [4] was “inactive”, the inhibition [5] was “inactive” and the inhibition [6] was “inactive”. For the same molecule, the inhibition [7] was “inactive”, the inhibition [8] was “inactive” and the AUC [9] was 63.3 µM·h. The inhibition [10] was “inactive”, the inhibition [11] was “inactive” and the inhibition [12] was “inactive”. For the same molecule, the inhibition [13] was “inactive”, the half-life [14] was 4.6 h and the half-life [15] was 4.3 h. For the same molecule, the Vd [16] was 2.32 L/kg, the half-life [17] was 3.7 h and the Activity (Salmonella typhimurium [18]) was “Toxic”. The IC50 [19] was over 170 µM, the inhibition [20] was “inactive” and the inhibition [21] was “inactive”. For the same molecule, the inhibition [22] was “inactive”, the inhibition [23] was “inactive” and the inhibition [24] was “inactive”. For the same molecule, the inhibition [25] was “inactive”, the inhibition [26] was “inactive” and the inhibition [27] was “inactive”. The inhibition [28] was “inactive”, the inhibition [29] was “inactive” and the Activity (Salmonella typhimurium [30]) was “Toxic”. The inhibition [31] was “inactive”, the inhibition [32] was “inactive” and the Cmax [33] was 0.37 µM. For the same molecule, the inhibition [34] was “inactive”, the inhibition [35] was “inactive” and the Cmax [36] was 7.88 µM. For the same molecule, the inhibition [37] was “inactive”, the inhibition [38] was “inactive” and the inhibition [39] was “inactive”. For the same molecule, the inhibition [40] was “inactive”, the inhibition [41] was “inactive” and the AUC [42] was 2.71 µM·h. The clearance [43] was 8.67 mL/min/kg, the inhibition [44] was “inactive” and the bioavailability [45] was 29%.
